Test results from patent US11819533B2, “Compositions and methods for the treatment of fungal infections” (Cidara Therapeutics, Inc., priority 2017, dated 2023).
“Also recorded” adds a separate entry of the source. Starred links: 1 amine or outer side, 2 acyl side, 3 side chain; linkers in the order of their positions; H or OH if unused. Positions of bridges follow the written chain, without caps; N, C: chain ends. Non-standard residues stand in square brackets, D forms with d. Residues, ends and D or L forms follow the SMILES beside them. *: point of attachment. Orn(4R-OH,5R-OCH2CH2NMe3+) = C[N+](C)(C)CCO[C@@H](N[*:3])[C@H](O)C[C@H](N[*:1])C(=O)[*:2]; pTerphenylCO(4''-OnC5H11) = CCCCCOc1ccc(-c2ccc(-c3ccc(C(=O)*)cc3)cc2)cc1; hTyr(3S-OH,4S-OH) = N[C@H](C(=O)O)[C@H](O)[C@@H](O)c1ccc(O)cc1; Pro(3S-OH,4S-Me) = C[C@H]1CN[C@H](C(=O)O)[C@H]1O; Hyp = O=C(O)[C@@H]1C[C@@H](O)CN1

How the values were obtained:
cynomolgus monkeys = experiment: Single-dose intravenous infusion tolerability study; type: in vivo
Description: The objective of this study was to evaluate and compare the tolerability of CD101 when administered once by either a 20-minute or 60-minute intravenous infusion to cynomolgus monkeys. In addition, a vehicle similar to the intended initial clinical formulation was assessed when administered once by 20-minute intravenous infusion up to the highest feasible dose (10 mg/kg).
This study was divided into 2 phases (Table 8). In phase 1, CD101 acetate was administered in vehicle-1 (1.25% Tween 80, 5% mannitol, 0.3% glacial acetic acid adjusted to pH 4.5±0.1) as a single 20-minute (±2 minutes) intravenous infusion to 1 animal/sex/group at 0 and 30 mg/kg (Groups 1 and 2, respectively). In addition, CD101 acetate was administered in vehicle-1 as a single 60-minute (±5 minutes) intravenous infusion to 1 animal/sex/group at 0 and 30 mg/kg (Groups 3 and 4, respectively).
Dosing was staggered so that Group 5 was dosed 2 days after Groups 1-4.

[1] = PBS buffer drop test (Example 3); type: physicochemical
Description: These solutions were tested for solubility in the PBS drop test, which involved adding the solution dropwise into PBS solution (1:4.3 dilution) and visually observing the resulting solution for any precipitation. PBS buffer serves as a surrogate for plasma, and the PBS drop test is used to evaluate the potential for insolubility as the drug enters the bloodstream at the injection site.

## CCCCCOc1ccc(-c2ccc(-c3ccc(C(=O)N[C@H]4C[C@@H](O)[C@@H](OCC[N+](C)(C)C)NC(=O)[C@@H]5[C@@H](O)[C@@H](C)CN5C(=O)[C@H]([C@@H](C)O)NC(=O)[C@H]([C@H](O)[C@@H](O)c5ccc(O)cc5)NC(=O)[C@@H]5C[C@@H](O)CN5C(=O)[C@H]([C@@H](C)O)NC4=O)cc3)cc2)cc1 [CD101 acetate] ({pTerphenylCO(4''-OnC5H11)}-[Orn(4R-OH,5R-OCH2CH2NMe3+)]T[Hyp][hTyr(3S-OH,4S-OH)]T[Pro(3S-OH,4S-Me)]; lactam 1-C)
Cynomolgus monkeys; 10 mg/kg (highest feasible dose), 20-minute IV infusion in vehicle-2 (0.50% Tween 80, 0.76% mannitol, 0.125% sodium lactate in 3.5% dextrose, pH 5.5)
  Tolerability in vehicle similar to intended clinical formulation: can be administered safely
Cynomolgus monkeys; single IV infusion 30 mg/kg in vehicle-1 (1.25% Tween 80, 5% mannitol, 0.3% glacial acetic acid, pH 4.5)
  Tolerability of 20-minute versus 60-minute infusion: no differences that could be attributed to the duration of infusion; also recorded: no differences between the tolerability of a 20-minute and 60-minute infusion
Cynomolgus monkeys; single IV infusion, 30 mg/kg in vehicle-1 (20 or 60 min) or 10 mg/kg in vehicle-2 (20 min)
  Clinical observations: No other remarkable clinical observations
[1]; 0.3% acetic acid, 1.25% Tween 80 and 5% mannitol, pH 4.5, 6.0 mg/mL, 1.4 mg/mL in PBS
  Appearance upon PBS drop test: Clear
[1]; 0.3% acetic acid, 2.5% Tween 80 and 5% mannitol, pH 4.5, 4 mg/mL, 0.92 mg/mL in PBS
  Appearance upon PBS drop test: Clear
[1]; 0.3% acetic acid, 2.5% Tween 80 and 5% mannitol, pH 4.5, 6.0 mg/mL, 1.4 mg/mL in PBS
  Appearance upon PBS drop test: Clear
[1]; 0.3% acetic acid, 2.5% Tween 80 and 5% mannitol, pH 4.5, 8.0 mg/mL, 1.8 mg/mL in PBS
  Appearance upon PBS drop test: Clear
[1]; 0.9% Saline, pH 5.3, 2.8% Tween 80, 4 mg/mL
  Appearance upon PBS drop test: Clear
[1]; 0.9% Saline, pH 6.6, 2.5% Tween 80, 4 mg/mL
  Appearance upon PBS drop test: Clear
[1]; 0.9% Saline, pH 7.2, 1.75% Tween 80, 4 mg/mL
  Appearance upon PBS drop test: Clear
[1]; 0.9% Saline, pH 7.2, 2.5% Tween 80, 4 mg/mL
  Appearance upon PBS drop test: Clear
[1]; 0.9% Saline, reverse addition (CD101 acetate and Tween 80 mixed first, then saline added), 1.75% Tween 80, 4 mg/mL
  Appearance upon PBS drop test: Clear
[1]; 5% Mannitol/25 mM Na Acetate, pH 4.63, 2.5% Tween 80, 4 mg/mL
  Appearance upon PBS drop test: Clear
[1]; 5% Mannitol/30 mM Na Lactate, pH 5.45, 2.5% Tween 80, 4 mg/mL
  Appearance upon PBS drop test: Clear
[1]; 5% Mannitol/0.3% Acetic Acid, pH 3.54, 2.5% Tween 80, 4 mg/mL
  Appearance upon PBS drop test: Clear
[1]; PBS buffer pH 7.4, pH 7.13, 1.75% Tween 80, 4 mg/mL
  Appearance upon PBS drop test: Clear
